Assay results: US20080063714A1, “Compositions for Encapsulation and Controlled Release” (priority 2003, published 2008)

T1: adenosine deaminase (Bos taurus, UniProt P56658)
T1 construct: purchased Sigma lot no; 70H8145 (catalogue number not given)
T1 sequence (P56658 2-363 limits assumed): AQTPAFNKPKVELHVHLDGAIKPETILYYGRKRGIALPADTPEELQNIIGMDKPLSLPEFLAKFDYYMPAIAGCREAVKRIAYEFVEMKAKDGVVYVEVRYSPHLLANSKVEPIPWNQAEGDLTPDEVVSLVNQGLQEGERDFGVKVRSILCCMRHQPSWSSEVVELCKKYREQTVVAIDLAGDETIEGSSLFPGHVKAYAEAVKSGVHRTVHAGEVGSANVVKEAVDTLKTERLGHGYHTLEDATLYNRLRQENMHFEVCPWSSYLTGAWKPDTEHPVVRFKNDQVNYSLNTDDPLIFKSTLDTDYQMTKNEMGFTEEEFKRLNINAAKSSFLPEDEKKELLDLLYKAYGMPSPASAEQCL

B1: Comparative Example: Unencapsulated adenosine deaminase, approximately 110 μg/mL in 0.1% trifluoroacetic acid in water (pH 2.0) (protein, UniProt P56658 2-363, looked up)
Adenosine deaminase: T1 sequence (P56658 2-363 limits assumed)

Key:
[1] = Penicillin G degradation in acidic solution pH 2.0; type: physicochemical; conditions: pH 2.0, 2 hours, 37° C.
Text: For example, particles of the present invention can protect penicillin G from degradation in acidic environments. When exposed to an acidic environment, such as a solution with pH less than about 5.0, penicillin G is rapidly degraded. […] Penicillin G may be encapsulated in particles of the present invention, such as those comprising triazine derivatives of formula I, and protected from degradation in acidic environment. For example, penicillin G encapsulated in crosslinked particles comprising 4-{[4-(4-carboxyanilino)-6-(3-methyl-1H-imidazol-3-ium-1-yl)-1,3,5-triazin-2-yl]amino}benzoate and a mixture of magnesium and aluminum cations may be exposed to an acidic solution with a pH of 2.0 for 2 hours at 37° C.

adenosine deaminase = biological target: T1, adenosine deaminase; assay: Adenosine deaminase activity (inosine by HPLC) after exposure to acid or water; type: biochemical; conditions: after 2 hours in 0.1% trifluoroacetic acid pH 2.0 at room temperature
Protocol: One portion of the beads was added to a vial containing 20 ml of a 0.1% trifluoroacetic acid in water (pH of 2.0) test solution. The beads were exposed to the acidic test solution at room temperature for two hours. The acidic test solution was then decanted and discarded. The beads were rinsed with 10 mL deionized water. The water was then decanted and discarded. Phosphate buffer (20 mL, pH of 7.0 with 0.15 M NaCl) was added to the vial with the remaining beads and the vial was agitated on a wrist action shaker for one hour to dissolve the beads. The resulting solution was filtered through a 0.22 μm poly(vinylidene fluoride) filter.
The inosine peak area was 733 units.
The other portion of the beads was added to a vial containing 20 mL of deionized water (pH approx. 7.5). The beads were exposed to the water solution for two hours. The water was then decanted and discarded. Phosphate buffer (20 mL, pH of 7.0 with 0.15 M NaCl) was added to the vial with the remaining beads and the vial was agitated on a wrist action shaker for one hour to dissolve the beads. […] Adenosine deaminase activity was determined as described above. […]
Adenosine deaminase was added to a 20 mL of 0.1% trifluoroacetic acid in water (pH of 2.0) solution to prepare an acidic test solution with a concentration of approximately 110 μg/mL adenosine deaminase. […] Adenosine deaminase activity was determined as described above. […]

Molecule | Degradation of penicillin G in acidic solution [1] | Adenosine deaminase activity, inosine peak area (adenosine deaminase)
CC1(C)S[C@@H]2[C@H](NC(=O)Cc3ccccc3)C(=O)N2[C@H]1C(=O)O [Penicillin G] | almost completely degraded | –
B1 | – | 5 units
